Data reported in patent US5258406A, “Sulfonimidamides” (priority 1992, dated 1993).
Read-outs that look alike come from different tables or passages of the source.

System: 6C3HED lymphosarcoma
Test: animal or person
Assay type: in vivo
Settings: for inhibition in vivo at 150 mg/kg / inhibition in vivo at 300 mg/kg / inhibition in vivo at 25 mg/kg / inhibition in vivo at 50 mg/kg: Mus musculus, 6C3HED; for inhibition in vivo at 300 mg/kg: read-out: % inhibition of tumor growth, oral, 300 mg/kg, BIDX 8; for inhibition in vivo at 25 mg/kg: read-out: % inhibition of tumor growth, oral, 25 mg/kg, DX 8; for inhibition in vivo at 50 mg/kg: read-out: % inhibition of tumor growth, oral, 50 mg/kg, DX 8
Description: The compounds were tested in C3H mice bearing a 6C3HED lymphosarcoma, also known as the Gardner lymphosarcoma (GLS), and in a variety of human tumor xenografts in CD1 nu/nu mice, including CX-1, LX-1, HXGC3, and VRC5. The 6C3HED lymphosarcoma was obtained from the Division of Cancer Treatment, National […] Institute, Tumor Bank, maintained at E. G. and G. Mason Research (Worcester, Mass.). The CX-1 human colon carcinoma and the LX-1 human lung carcinoma xenografts were obtained from the National Cancer Institute. The HXGC3 and VRC5 human colon xenografts were obtained from Dr. P. J. Houghton, St. Jude Children's Hospital in Memphis (see Br. J. Cancer, 37, 213 (1978)). First passage tumor was stored in liquid nitrogen using standard techniques. The transplanted tumor was reestablished from the Tumor Bank every six months or as needed. The tumor was maintained by serial passage twice weekly in C3H mice.
In the procedure the tumor was removed from passage animals and minced into 1- to 3-mm square fragments using sterile techniques. Tumor pieces were checked for sterility using both Antibiotic Medium 1 and Brain Heart Infusion (Difco, Detroit, Mich.). Recipient mice were shaved and tumor pieces were implanted subcutaneously in the auxiliary region by trocar. Drug therapy on the appropriate schedule was initiated on the day after tumor implant for 6C3HED and after a seven (7) day delay for xenografts (or other delay as noted in Table 2). The compound being tested was mixed with 2.5% Emulphor EL620 from GAF Corporation (1:40 dilution in saline). Food and water were provided ad libitium. The drug was administered orally in 0.5 ml of 2.5% Emulphor (unless otherwise indicated). The tumor was measured the day after treatment ended with two dimensional measurements (width and length) of the tumor taken using automated digital calipers interfaced to a microcomputer. Approximate weight for the tumor was calculated using the following formula [Worzalla, J. F., et al., Invest. New Drugs, 8, 241 (1990], (tumor weight in mg)=(width in mm)^2 ×(length in mm)/2.
At least one control group of an equal number of mice was treated with the same volume of 2.5% Emulphor only. The percent inhibition was determined by subtracting the ratio of the mean tumor size of the test group relative to the control group from one and multiplying the result times 100.
The results of several experiments in mice bearing a 6C3HED lymphosarcoma (or other tumor where indicated) when the indicated compounds were administered are provided in Table 2. In Table 2, column 1 gives the Example number of the compound used, column 2 lists the dose level in mg/kg, column 3 provides the percent inhibition of tumor growth, column 4 gives the number of mice which died relative to the total number of animals in the group, column 5 gives the method of administration of the compound, and column 6 gives the dosage schedule. The protocol used with other tumors was the same as with the 6C3HED lymphosarcoma.

[1] = po, read-out: % inhibition of tumor growth, oral, 150 mg/kg, BIDX 8

Row | SMILES | Tox/Tot (mice which died / total) (IP, 150 mg/kg, DX 8) | % inhibition of tumor growth (IP, 300 mg/kg, DX 8) | Tox/Tot (mice which died / total) (IP, 300 mg/kg, DX 8) | inhibition in vivo at 150 mg/kg (ip, read-out: % inhibition of tumor growth, IP, 150 mg/kg, DX 8) | inhibition in vivo at 150 mg/kg [1] | inhibition in vivo at 300 mg/kg (po) | Tox/Tot (mice which died / total) (oral, 150 mg/kg, BIDX 8) | Tox/Tot (mice which died / total) (oral, 300 mg/kg, BIDX 8) | inhibition in vivo at 25 mg/kg (po) | inhibition in vivo at 50 mg/kg (po) | Tox/Tot (mice which died / total) (oral, 25 mg/kg, DX 8) | Tox/Tot (mice which died / total) (oral, 50 mg/kg, DX 8)
1 | Cc1cc(S(N)(=O)=NC(=O)Nc2ccc(Cl)cc2)cc(C)c1Cl (centres unmarked) [Example 61] | 2/10 | TOX | 10/10 | 72% | 0% | 0% | 0/10 | 0/10 |  |  |  | 
2 | CNS(=O)(=NC(=O)Nc1ccc(Cl)cc1)c1ccc(C)c(C)c1 (centres unmarked) [Example 62] |  |  |  |  |  |  |  |  | 98% | 99% | 0/10 | 2/10
3 | CC(=O)N(C)S(=O)(=NC(=O)Nc1ccc(Cl)cc1)c1ccc(C)c(C)c1 (centres unmarked) [Example 63] |  |  |  |  |  |  |  |  | 79% | 95% | 0/10 | 0/10
4 | CNS(=O)(=NC(=O)N(C)c1ccc(Cl)cc1)c1ccc(C)cc1 (centres unmarked) [Example 65] |  |  |  |  | 91% | 97% | 0/10 | 0/10 |  |  |  | 
